The source of these data is patent US12697359B2, “Composition for preventing hair loss and promoting hair growth comprising postbiotic components from heat-treat Limosilactobacillus fermentum LM1020” (priority 2023, dated 2026).

In the experiment the test system is dermal papilla cells. Description: Dermal papilla cell growth promotion effect of functional raw materials and heat-treated LM1020, alone or combined (Colby prediction). It is filed as cell-based, human. Particulars: for effect on growth of dermal papilla cells / Effect of promoting growth of dermal papilla cell (%) Measured value: medium lacking growth factor; for Effect of promoting growth of dermal papilla cell (%) Measured value: raw material alone or LSD mixture, without LM1020. The protocol: The effect on the growth of dermal papilla cells was confirmed when the heat-treated Limosilactobacillus fermentum LM1020 was used together with L-menthol, salicylic acid, and dexpanthenol, which are active ingredients frequently used for functional cosmetics that help relieve hair loss symptoms. After the dermal papilla cells were seeded in a 96-well plate and cultured for 24 hours, the medium in the well was replaced with a medium lacking growth factor and further cultured for 24 hours. Then, the heat-treated Limosilactobacillus fermentum LM1020, L-menthol, salicylic acid, and dexpanthenol were used alone or mixed in a ratio of […] and used for treatment of dermal papilla cells prepared by the above-described method to determine the effect on the growth of the dermal papilla cells.
A growth rate of dermal papilla cells when cultured alone and growth rates of dermal papilla cells when treated alone or in a combination of L-menthol, salicylic acid, dexpanthenol, and the heat-treated Limosilactobacillus fermentum LM1020 were calculated. Then, the effects of the respective treatment materials on the promotion of growth of dermal papilla cells were calculated using the formula below and compared with each other. All the tests were repeated three times, and the average of each result was calculated and compared. • Dermal papilla cell growth promotion effect (%)=(B−A)÷A×100 • A=Growth rate of dermal papilla cells in non-treatment group • B=Growth rate of dermal papilla cells when treated with L-menthol, salicylic acid, dexpanthenol, and heat-treated Limosilactobacillus fermentum LM1020
Meanwhile, it was confirmed that when the heat-treated Limosilactobacillus fermentum LM1020 is used for treatment together with compounds of L-menthol, salicylic acid, and dexpanthenol, it is possible to overcome the effect of the compounds on the inhibition of growth of dermal papilla cells and promote the growth of dermal papilla cells. In order to thoroughly understand their synergistic effect, the effect to be predicted was calculated using the Colby formula, and a prediction value was compared with an experimental value (measurement value) to verify whether a synergistic effect exceeding the prediction value can be achieved.

Molecules are shown by their SMILES.

In the case of `CC(C)[C@@H]1CC[C@@H](C)C[C@H]1O` [L-menthol], the “effect on growth of dermal papilla cells” value is on record as “inhibit the growth of dermal papilla cells” and the “Effect of promoting growth of dermal papilla cell (%) Measured value” (“Effect of promoting growth … (%) Measured value” for short) is recorded as −12.05 ± 3.31%.

Consider `CC(C)(CO)[C@@H](O)C(=O)NCCCO` [dexpanthenol], for which the “effect on growth of dermal papilla cells” value is given as “able to promote the growth of dermal papilla cells” and the “Effect of promoting growth … (%) Measured value” is 2.35 ± 1.61%. In addition, the “effect on promotion of growth of dermal papilla cells compared with heat-treated LM1020” value (dexpanthenol alone vs LM1020 alone) is on record as “lower than that of the heat-treated Limosilactobacillus fermentum LM1020 at all concentrations”.

Regarding `O=C(O)c1ccccc1O` [salicylic acid], the “effect on growth of dermal papilla cells” value is given as “inhibit the growth of dermal papilla cells” and the “Effect of promoting growth … (%) Measured value” is −0.39 ± 0.80%.
